Tests used:
[1] = test system: mouse; conditions: Carcinogenicity, b6c3f1, Oral, Feed, dose end: 24 month
[2] = test system: rat; conditions: Prenatal developmental toxicity study, sprague dawley, Oral, Gavage/Intubation, dose end: 15 GD
[3] = test system: rat; conditions: Prenatal developmental toxicity study; sprague dawley; Oral; Feed; dose end: 15 GD; group: maternal; systemic / in life observation / body weight / body weight gain + systemic / in life observation / food consumption / food consumption
[4] = test system: rat; conditions: Subchronic oral toxicity in rodents, other, Feed, dose end: 90 day, group: systemic
[5] = test system: dog; conditions: Subchronic oral toxicity in nonrodent, beagle, Capsule, dose end: 90 day, group: systemic
[6] = test system: dog; conditions: Chronic toxicity; beagle; Oral; Feed; dose end: 12 month; group: systemic; systemic / clinical chemistry / beta globulin / beta globulin + systemic / hematology / erythrocyte (rbc) count differential / erythrocyte (…
[7] = test system: mouse; conditions: Carcinogenicity; cd1; Oral; Feed; dose end: 79 week; group: systemic; systemic / hematology / leukocyte (wbc) count differential / leukocyte (wbc) + systemic / hematology / lymphocyte / lymphocyte + systemic / …
[8] = test system: rat; conditions: Subchronic oral toxicity in rodents, sprague dawley, Feed, dose end: 90 day, group: systemic
[9] = test system: dog; conditions: Subchronic oral toxicity in nonrodent, beagle, Feed, dose end: 90 day, group: systemic
[10] = test system: mouse; conditions: Combined chronic toxicity/carcinogenicity; other; Oral; Feed; dose end: 365 day; group: systemic; systemic / pathology microscopic / blood / lymphoma malignant
[11] = test system: rat; conditions: Combined chronic toxicity/carcinogenicity; fischer; Oral; Feed; dose end: 365 day; group: systemic; systemic / in life observation / body weight / body weight
[12] = test system: mouse; conditions: Chronic toxicity, b6c3f1, Oral, Water, dose end: 104 week, group: systemic
[13] = test system: mouse; conditions: Subchronic oral toxicity in rodents, b6c3f1, Water, dose end: 13 week, group: systemic
[14] = test system: rat; conditions: Subchronic oral toxicity in rodents, fischer, Water, dose end: 25 week, group: systemic, systemic / in life observation / body weight / body weight gain
[15] = test system: rat; conditions: Chronic toxicity; fischer; Oral; Water; dose end: 104 week; group: systemic; systemic / pathology microscopic / mammary gland / fibroadenoma
[16] = test system: rat; conditions: Sub-acute repeat dose toxicity; wistar; Injection; Intravenous; dose end: 28 day; group: systemic; systemic / clinical chemistry / calcium / calcium
[17] = test system: rat; conditions: Prenatal developmental toxicity study; wistar; Oral; Gavage/Intubation; dose end: 18 GD; group: developmental; systemic / organ weight / epididymis / absolute + systemic / organ weight / liver / absolute
[18] = test system: rat; conditions: Prenatal developmental toxicity study; wistar; Oral; Gavage/Intubation; dose end: 18 GD; group: developmental; systemic / organ weight / epididymis / absolute + systemic / organ weight / liver / absolute; remark: listed apart in the source
[19] = test system: rat; conditions: Combined chronic toxicity/carcinogenicity, wistar, Inhalation, Whole-Body, dose end: 125 week, group: systemic
[20] = test system: rat; conditions: Prenatal developmental toxicity study, fischer, Inhalation, Whole-Body, dose end: 15 GD
[21] = test system: rat; conditions: Neurotoxicity screening battery; fischer; Inhalation; Whole-Body; dose end: 24 week; group: cannot be grouped; systemic / in life observation / body weight / body weight
[22] = test system: rat; conditions: Multigenerational reproductive toxicity study; fischer; Inhalation; Whole-Body; dose end: 2 generation; group: parental; systemic / in life observation / body weight / body weight
[23] = test system: mouse; conditions: Sub-acute repeat dose toxicity; b6c3f1; Oral; Feed; dose end: 14 day; group: systemic; systemic / in life observation / clinical signs / fur (altered appearance) + systemic / in life observation / mortality / mortality
[24] = test system: mouse; conditions: Carcinogenicity; b6c3f1; Oral; Feed; dose end: 103 week; group: systemic; systemic / in life observation / body weight / body weight
[25] = test system: rat; conditions: Carcinogenicity; fischer; Oral; Feed; dose end: 103 week; group: systemic; systemic / in life observation / body weight / body weight + systemic / pathology microscopic / eye / cataract + systemic / pathology …
[26] = test system: rat; conditions: Subchronic oral toxicity in rodents, fischer, Feed, dose end: 13 week, group: systemic
[27] = test system: rat; conditions: Sub-acute repeat dose toxicity; fischer; Oral; Feed; dose end: 14 day; group: systemic; systemic / in life observation / body weight / body weight gain + systemic / in life observation / clinical signs / urogenital staining + …
[28] = test system: rat; conditions: Multigenerational reproductive toxicity study; long evans; Oral; Gavage/Intubation; dose end: 1 generation; group: offspring; systemic / organ weight / vagina / absolute + systemic / organ weight / vagina / relative to body weight
[29] = group: cholinesterase, cholinesterase / cholinesterase / cholinesterase / brain cholinesterase (che)
[30] = group: cholinesterase, cholinesterase / cholinesterase / cholinesterase / brain cholinesterase (che) + cholinesterase / cholinesterase / cholinesterase / plasma …
[31] = group: systemic, systemic / in life observation / clinical signs / convulsions + systemic / pathology gross / lymph node / enlarged + systemic / pathology …
[32] = group: developmental, systemic / in life observation / body weight / fetal weight
[33] = group: maternal, systemic / in life observation / body weight / body weight gain + systemic / in life observation / food consumption / food consumption
[34] = group: maternal, systemic / in life observation / body weight / body weight gain + systemic / in life observation / food consumption / food consumption + …
[35] = systemic / in life observation / body weight / body weight gain
[36] = systemic / in life observation / body weight / body weight gain + systemic / pathology microscopic / kidney / casts + systemic / pathology …
[37] = systemic / clinical chemistry / [other] / [other] + systemic / clinical chemistry / bilirubin / total bilirubin + systemic / clinical …
[38] = systemic / in life observation / body weight / body weight gain + systemic / organ weight / spleen / relative to body weight + systemic / …
[39] = systemic / pathology microscopic / blood / lymphoma malignant
[40] = systemic / pathology microscopic / blood / lymphoma malignant + systemic / in life observation / body weight / body weight
[41] = systemic / in life observation / body weight / body weight gain + systemic / in life observation / mortality / mortality + systemic / …
[42] = systemic / in life observation / body weight / body weight
[43] = group: developmental, developmental / developmental malformation / bone / supernumerary
[44] = systemic / in life observation / body weight / body weight gain + systemic / in life observation / clinical signs / skin discoloration + …

For `COP(=S)(OC)SCN1C(=O)c2ccccc2C1=O` [Phosmet], the LOAEL [1, 29] was 1 mg/kg/day, the NOAEL [1, 29] was under 1 mg/kg/day and the LEL [1, 30] was 1 mg/kg/day. The NEL [1, 30] was under 1 mg/kg/day, the LOAEL ([1]; group: systemic, systemic / in life observation / clinical signs / convulsions) was 4 mg/kg/day and the LEL [1, 31] was 1 mg/kg/day. For the same compound, the NEL [1, 31] was under 1 mg/kg/day, the NOAEL ([1]; group: systemic, systemic / in life observation / clinical signs / convulsions + systemic / pathology microscopic / liver / hepatocellular adenoma + systemic…) was 1 mg/kg/day and the LEL [2, 32] was 5 mg/kg/day. It also gave an LOAEL [2, 32] of over 30 mg/kg/day, an NEL [2, 32] of under 5 mg/kg/day and an NOAEL [2, 32] of at least 30 mg/kg/day. The LEL [2, 33] was 20 mg/kg/day, the LOAEL [2, 34] was over 30 mg/kg/day and the NEL [2, 34] was 10 mg/kg/day. The NOAEL [2, 34] was at least 30 mg/kg/day, the LEL [3] was 27 mg/kg/day and the LOAEL [3] was over 29 mg/kg/day. For the same compound, the NEL [3] was 22 mg/kg/day and the NOAEL [3] was at least 29 mg/kg/day.

`CCc1occc(=O)c1O` [2-Ethyl-3-hydroxy-4H-pyran-4-one] showed an LEL [4, 35] of 500 mg/kg/day, an LOAEL [4, 36] of over 1000 mg/kg/day and an NEL [4, 36] of 250 mg/kg/day. For the same compound, the NOAEL [4, 36] was at least 1000 mg/kg/day, the LOAEL [5, 37] was over 500 mg/kg/day and the NOAEL [5, 37] was at least 500 mg/kg/day. For the same compound, the NEL ([5]; systemic / clinical chemistry / bilirubin / total bilirubin + systemic / hematology / anemia / anemia - hemolytic + systemic / pathology …) was 125 mg/kg/day and the LEL ([5]; systemic / pathology microscopic / liver / hemosiderosis) was 250 mg/kg/day.

For `COc1ccc(-c2ccccc2)cc1NNC(=O)OC(C)C` [Bifenazate], the LEL [6] was 8.95 mg/kg/day, the LOAEL [6] was 8.95 mg/kg/day and the NEL [6] was 1.01 mg/kg/day. The NOAEL [6] was 1.01 mg/kg/day, the LEL [7] was 15.4 mg/kg/day and the LOAEL [7] was 15.4 mg/kg/day. It also gave an NEL [7] of 1.5 mg/kg/day, an NOAEL [7] of 1.5 mg/kg/day and an LEL ([8]; systemic / clinical chemistry / protein / protein) of 13.8 mg/kg/day. It also gave an NEL ([8]; systemic / clinical chemistry / protein / protein + systemic / hematology / erythrocyte (rbc) count differential / erythrocyte (rbc) + …) of 2.7 mg/kg/day, an LOAEL [8, 38] of 16.3 mg/kg/day and an NOAEL [8, 38] of 3.2 mg/kg/day. For the same compound, the LOAEL ([9]; systemic / hematology / mean corpuscular (cell) volume (mcv) / mean corpuscular (cell) volume (mcv) + systemic / hematology / mean …) was 10.4 mg/kg/day, the LEL [9, 35] was 0.9 mg/kg/day and the NEL [9, 35] was under 0.9 mg/kg/day. The NOAEL ([9]; systemic / in life observation / body weight / body weight gain + systemic / hematology / mean corpuscular (cell) volume (mcv) / mean …) was 0.9 mg/kg/day.

`CCCCCC(N)=O` [Hexanamide] gave an LEL [10] of 1500 mg/kg/day, an LOAEL [10] of over 1500 mg/kg/day and an NEL [10] of under 1500 mg/kg/day. For the same compound, the NOAEL [10] was at least 1500 mg/kg/day, the LEL [11] was 750 mg/kg/day and the LOAEL [11] was over 750 mg/kg/day. For the same compound, the NEL [11] was under 750 mg/kg/day and the NOAEL [11] was at least 750 mg/kg/day.

In the case of `O=C1CCCCC1` [Cyclohexanone], the LEL [12, 39] is reported as 867 mg/kg/day, the NEL [12, 39] is reported as under 867 mg/kg/day and the LOAEL [12, 40] is reported as over 3330 mg/kg/day. It also gave an NOAEL [12, 40] of at least 3330 mg/kg/day, an LEL [13, 35] of 3330 mg/kg/day and an LOAEL [13, 41] of over 6270 mg/kg/day. The NEL [13, 41] was 1730 mg/kg/day, the NOAEL [13, 41] was at least 6270 mg/kg/day and the LEL [14] was 325 mg/kg/day. It also gave an LOAEL [14] of over 325 mg/kg/day, an NEL [14] of 235 mg/kg/day and an NOAEL [14] of at least 325 mg/kg/day. The LEL [15] was 325 mg/kg/day, the LOAEL [15] was over 325 mg/kg/day and the NEL [15] was 165 mg/kg/day. The NOAEL [15] was at least 325 mg/kg/day, the LEL [16] was 100 mg/kg/day and the LOAEL [16] was over 100 mg/kg/day. The NEL [16] was 50 mg/kg/day and the NOAEL [16] was at least 100 mg/kg/day.

Work on `CCCCCCCCCc1ccc(O)cc1` [4-Nonylphenol] yielded an LEL [17] of 15 mg/kg/day, an LOAEL [17] of over 75 mg/kg/day and an NEL [17] of 3 mg/kg/day. It also gave an NOAEL [17] of at least 75 mg/kg/day, an LEL [18] of 15 mg/kg/day and an LOAEL [18] of over 75 mg/kg/day. It also gave an NEL [18] of 3 mg/kg/day and an NOAEL [18] of at least 75 mg/kg/day.

Work on `CC1CO1` (centres undefined) [1,2-Propylene oxide] yielded an LEL [19, 42] of 30 ppm, an NEL [19, 42] of under 30 ppm and an LOAEL ([19]; systemic / pathology microscopic / nose / [other] + systemic / pathology microscopic / nose / hyperplasia) of 100 ppm. For the same compound, the NOAEL ([19]; systemic / pathology microscopic / nose / [other] + systemic / pathology microscopic / nose / hyperplasia + systemic / pathology microscopic…) was 30 ppm, the LEL [20, 43] was 500 ppm and the LOAEL [20, 43] was 500 ppm. For the same compound, the NEL [20, 43] was 300 ppm, the NOAEL [20, 43] was 300 ppm and the LOAEL [20, 33] was 500 ppm. The LEL [20, 34] was 500 ppm, the NEL [20, 34] was 300 ppm and the NOAEL [20, 34] was 300 ppm. It also gave an LEL [21] of 100 ppm, an LOAEL [21] of over 300 ppm and an NEL [21] of 30 ppm. For the same compound, the NOAEL [21] was at least 300 ppm, the LEL [22] was 30 ppm and the LOAEL [22] was over 300 ppm. The NEL [22] was under 30 ppm and the NOAEL [22] was at least 300 ppm.

Compound `CCCOC(=O)c1cc(O)c(O)c(O)c1` [Propyl gallate] has an LEL [23] of 7500 mg/kg/day, an LOAEL [23] of over 15000 mg/kg/day and an NEL [23] of 3750 mg/kg/day. The NOAEL [23] was at least 15000 mg/kg/day, the LEL [24] was 900 mg/kg/day and the LOAEL [24] was 900 mg/kg/day. The NEL [24] was under 900 mg/kg/day, the NOAEL [24] was under 900 mg/kg/day and the LEL [25] was 300 mg/kg/day. It also gave an LOAEL [25] of 300 mg/kg/day, an NEL [25] of under 300 mg/kg/day and an NOAEL [25] of under 300 mg/kg/day. The LEL [26, 35] was 625 mg/kg/day, the LOAEL [26, 35] was 625 mg/kg/day and the NEL [26, 44] was 300 mg/kg/day. For the same compound, the NOAEL [26, 44] was 300 mg/kg/day, the LEL [27] was 2500 mg/kg/day and the LOAEL [27] was over 5000 mg/kg/day. It also gave an NEL [27] of 1250 mg/kg/day and an NOAEL [27] of at least 5000 mg/kg/day.

Compound `[O][Cl+][O-]` [Chlorine dioxide] has an LEL [28] of 10 mg/kg/day, an LOAEL [28] of over 10 mg/kg/day and an NEL [28] of 5 mg/kg/day. The NOAEL [28] was at least 10 mg/kg/day.
